Data reported in US20260097022A1, “COMPOUNDS AND USES THEREOF” (Integrated Biosciences, Inc., priority 2023, published 2026).

Experiments:
[1] = test system: Salmonella typhimurium TA100; assay: Genotoxicity assay (Ames 384-ISO test); assay type: cell-based; conditions: 100 μM
Experimental: Genotoxicity assay. An Ames 384-ISO test (6041-1S) from Environmental Bio-Detection Products, Inc, was used following the manufacturer's instructions. Briefly. Salmonella typhimurium TA100 was grown overnight (16-18 h) at 37° C., with shaking at 300 rpm and treated with the provided exposure media and compound samples at the final concentrations indicated. Treatment with the provided 4-nitroquinoline 1-oxide (4NQO), a mutagen, was used as a positive control. Cells were then added to the provided reversion solution, and each sample was split into 48 wells of 384-well plates. Plates were incubated at 37° C., for 2 days, after which the number of revertant (yellow-colored) wells corresponding to each sample was counted. […] An overnight bacterial culture was diluted 1:10.000 in LB medium (Becton Dickinson 244620) and plated using 99 μL working volumes into the wells of a clear flat-bottom 96-well plate. One μL of two-fold dilutions of each test compound in DMSO, starting from a final concentration of 500 μM, was added across wells, and plates were sealed and incubated overnight at 37° C., to determine bacterial growth.

[2] = test system: etoposide-treated IMR-90 cells; assay: Etoposide-induced senescence model, resazurin cell viability (screen and dose-response); assay type: cell-based, human; conditions: for effect on Sncs and control cells versus DMSO: concentrations between 1.5 to 3 μM, 3 days
Summary of the method: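 IMR-90 fibroblasts made senescent with 50 μM etoposide for 2 days, then 4 days recovery before plating. Compounds at 10 μM or 1 μM final (screen) or three-fold dilutions (1% DMSO) for 3 days, then 0.15 mM resazurin 1 day, fluorescence 550/590 nm. Viability expressed as fraction of untreated controls; biological duplicates.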

Mcl-1 = Mcl-1 (Homo sapiens, UniProt Q07820); assay: Mcl-1 TR-FRET; assay type: binding
[3] = test system: late-passage IMR-90 cells; assay: Replicative senescence model, resazurin cell viability; assay type: cell-based, human; conditions: early- versus late-passage IMR-90 cells
Experimental: Cell culture. Human lung fibroblast (IMR-90) cells were obtained from ATCC (CCL-186) and passaged less than 10 times (less than 30 population doublings) for all experiments described in this example, with the exception of high-passage cells used in the model of replicative senescence (see the section on Replicative senescence below). Cells were cultured in growth media comprising Eagle's Minimum Essential Medium (EMEM: ATCC 30-2003) supplemented with 10% fetal bovine serum (FBS: Thermo Fisher 16140071) and 1% penicillin-streptomycin (Thermo Fisher 15070063). Cells were incubated in a humidity-controlled incubator at 37° C., with 5% CO2. Cells were detached using trypsin-EDTA (0.05%; Gibco 25300120).
Cells were then plated as described below.
Chemical screening. For all screening experiments. 99 μL of cells were plated into each well of a 96-well clear flat-bottom, black polystyrene tissue-culture-treated plate (Corning 3904) at a density of ˜10+ cells/well. Plates were incubated overnight for adhesion. The day after plating. […] After an additional 1 day of incubation, the fluorescence excitation/emission at 550/590 nm was read using a SpectraMaxR M3 plate reader and manufacturer software (SoftMax Pro R 6). […]
Calculation of cellular viability values in dose-response curves. […] For each sample, the fluorescence intensity value was normalized by the mean of two untreated control values. […]

Bcl-XL = Bcl-XL (Homo sapiens, UniProt Q07817); assay: Bcl-XL TR-FRET; assay type: binding
BRD4 = BRD4 (Homo sapiens, UniProt O60885); assay: BRD4 inhibition; assay type: biochemical
[4] = ratio of IC50 values for vehicle- and etoposide-treated IMR-90 cells, 3 days treatment

Chain of Bcl-XL (Q07817 whole entry): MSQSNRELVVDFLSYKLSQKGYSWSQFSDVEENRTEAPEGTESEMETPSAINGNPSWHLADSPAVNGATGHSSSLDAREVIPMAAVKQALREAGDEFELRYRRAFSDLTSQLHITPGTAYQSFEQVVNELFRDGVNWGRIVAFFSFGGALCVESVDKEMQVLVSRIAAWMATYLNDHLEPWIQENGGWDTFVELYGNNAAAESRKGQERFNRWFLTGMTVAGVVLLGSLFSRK
Chain of Mcl-1 (Q07820 whole entry, species assumed): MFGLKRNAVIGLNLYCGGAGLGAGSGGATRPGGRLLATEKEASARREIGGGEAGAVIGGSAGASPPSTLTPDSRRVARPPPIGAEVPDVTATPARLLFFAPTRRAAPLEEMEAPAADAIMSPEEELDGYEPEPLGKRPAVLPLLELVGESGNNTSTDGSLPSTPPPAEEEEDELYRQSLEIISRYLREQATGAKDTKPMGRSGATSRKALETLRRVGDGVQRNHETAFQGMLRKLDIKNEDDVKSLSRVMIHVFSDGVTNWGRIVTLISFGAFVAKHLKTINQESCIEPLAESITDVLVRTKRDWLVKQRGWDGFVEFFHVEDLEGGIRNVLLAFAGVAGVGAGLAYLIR

| Structure (SMILES) | reversion of bacterial cultures (mutagenic potential) [1] | effect on Sncs and control cells versus DMSO [2] | IC50 (Mcl-1) [µM] | selectivity against late-passage Sncs compared with ABT-737 [3] | Therapeutic Index (TI) ([2]; etoposide-induced senescence model, ratio of IC50 values between etoposide- and DMSO-treated IMR-90 fibroblasts) | Therapeutic Index (TI) [2, 4] | IC50 (Bcl-XL) [µM] | IC50 (BRD4) [µM] |
| --- | --- | --- | --- | --- | --- | --- | --- | --- |
| COc1ccc(C(=O)Nc2ccc3nc(SCC(=O)Nc4ccccc4F)sc3c2)cc1OC [compound 6] | did not induce significant reversion | selective elimination of Sncs and no difference in the viabilities of control cells | ≥ 100 | – | – | – | – | – |
| Cc1ccccc1C(=O)Nc1ccc2nc(SCC(=O)Nc3ccccc3)sc2c1 [compound 19] | did not induce significant reversion | selective elimination of Sncs and no difference in the viabilities of control cells | – | less | +++ (compounds with a TI of >5 were labeled as +++) | 4.7 | – | – |
| O=C(Nc1ccc(S(=O)(=O)Nc2ncccn2)cc1)c1ccc(-c2ccccc2)cc1 [BRD-K20733377] | did not induce significant reversion | selective elimination of Sncs and no difference in the viabilities of control cells | – | similarly selective | – | 8.3 | ~1 | ~10 |
